According to PMC8839746, “Discovery and Characterization of a Cryptic Secondary Binding Site in the Molecular Chaperone HSP70” (Molecules, 2022):
Values after ≈ are worked out from the molar mass of the structure shown. Like-named read-outs stand apart in the source and are kept apart here. Values belong to the compound of their own block, whether it stands above or below them.

Tests used:
HSP70 = target: HSP70; set-up: method as in PMID 19256508; details: cited from earlier work
HSP72-NBD [1] = system: T1, HSP72-NBD; assay: waterLOGSY ligand-observed NMR binding; set-up: species or system human; details: ligand 200 μM, HSP72-NBD 10 μM
T1 construct: GST (glutathione-S-transferase), PreScission site (N, cleaved yes); made in house; host or cells: BL21-AI E. coli
Procedure: (§1) To confirm the binding of compounds to HSP72-NBD, a series of CPMG and WaterLOGSY experiments were performed. Compounds were assayed at 200 μM in the presence or absence of 10-μM HSP72-NBD. […] of ATP were also included in the competition experiments. The total assay volume was 200 μL, and the experiments were performed in 3-mm NMR tubes. The buffer was 25-mM Tris, pH 7.5, 50-mM NaCl, 10% D2O and 100 μM of DTT in deionized water. NMR experiments were conducted at a ^1H frequency of 600 MHz using a Bruker Avance 600 spectrometer (Bruker, Bilerica, MA, USA) equipped with a 5-mm TCI Cryo-probe. All data were acquired and processed using Topspin (Bruker, Bilerica, MA, USA) and MNova (Mestrelab Research SL, Santiago de Compostela, Spain). The relaxation-edited 1H-NMR spectrum was acquired at 298 K using the CPMG sequence with a spin-lock time of 600 ms. The water signal was suppressed using pre-saturation during the relaxation delay (2 s) and by using the Watergate sequence subsequent to the CPMG sequence. For each spectrum, 64 transients were acquired.

[2] = Kinetic solubility in pH 7.4 phosphate buffer by quantitative NMR; type: physicochemical; details: phosphate-buffered saline with 5% DMSO, aqueous with cosolvent or surfactant or cyclodextrin, kinetic from dmso stock, NMR method
Procedure: Nine microliters of a 10-mM DMSO solution of 1 was pipetted into one well of a 384-deep well plate (Greiner, part-no. 781270). one hundred and seventy-one microliters of aqueous buffer (137-mM NaCl, 2.7-mM KCl and 10-mM phosphate buffer solution (pH 7.4)) were pipetted into the same well and mixed 3 times by pipette to give a 500-µM solution of 1 with 5% DMSO. The plate was centrifuged (1000 rpm for 1 min, Eppendorf 5810C) and then sealed and incubated at room temperature for 20 h without shaking. The plate was centrifuged (1000 rpm for 1 min, Eppendorf 5810R), and 165 µL of the supernatant was transferred to a 3-mm NMR tube (Bruker, Part No. Z112272) using a liquid handler SamplePro Tube SJ S (Bruker, Bilerica, MA, USA)). The concentration of 1 was measured by quantitative ^1H-NMR using a single external standard (200-µM caffeine (Sigma C1778, Merck Life Science UK, Gillingham, UK)) in PBS (pH 7.4) with 1% DMSO-d6). NMR data was collected on a Bruker Avance Neo 600 spectrometer equipped with a 5-mm TCI Cryo-probe. The ^1H spectrum was referenced to the internal deuterated solvent. The operating frequency for ^1H was 600 MHz. […] The quantitative ^1H-NMR spectrum was acquired using a Bruker standard 1D lc1pngppsf2 pulse sequence with 32 scans. […] The quantitative 1H-NMR data analysis was carried out in Mnova 14.1 (Mestrelab Research SL, Santiago de Compostela, Spain).

HSP72-NBD [3] = system: T1, HSP72-NBD; assay: CPMG relaxation-edited ligand-observed 1H NMR binding and ATP competition; set-up: species or system human
Procedure: as §1

HSC70-NBD = target: T2, HSC70-NBD (Homo sapiens, UniProt P11142); assay: SPR binding to wild-type HSC70-NBD
T2 construct: made in house
Procedure: (§2) The HSC70-NBD variants used in SPR were produced and purified as previously described. All surface plasmon resonance (SPR) experiments were carried out on a Biacore T100 enhanced to T200 sensitivity (GE Life Sciences, Amersham, UK), and amine coupling chemistry was used to immobilize the proteins on a research grade CM5 sensor chip. The running buffer was phosphate-buffered saline (10-mM NaHPO4-NaH2PO4, pH 7.4, 2.7-mM KCl and 137-mM NaCl), and the chip’s surface was activated for 10 min using a 1:1 mixture of 100-mM N-hydroxysuccinimide and 400-mM 1-ethyl-3-(3-dimethylaminopropyl)-carbodiimide. Wild-type HSC70-NBD and the S275W mutant proteins were injected for 10 min at a concentration of 2 μM in a 10-mM sodium acetate buffer, pH 5.0 with 100-μM ADP as protection for the active site lysines. Finally, the surface was blocked via an injection of 1 M ethanolamine, pH 8.5 for 7 min. The flow rate was maintained at 10 μL/min for all the above procedures. On average, ~12,000 response units (RU) of the wild-type and the mutant proteins were immobilized on the chip. Flow cell one was left unmodified as the reference surface. Following protein immobilization, the running buffer was changed to phosphate-buffered saline containing 0.05% Tween20 (v/v) and 5% DMSO.
(§3) To determine binding constants (KD) for the compounds, all liquid handling was carried out using an ECHO 550 acoustic liquid dispenser (Labcyte, Dublin, Ireland), and compounds were added to 384-well polypropylene V-bottomed plates (Greiner, Stonehouse, UK), which were used as sample plates for the SPR experiments. Fresh 100-mM DMSO stocks of each compound were prepared and used to generate eight-point concentration responses ranging from 25 μM to 1000 μM or from 6.25 μM to 500 μM. For adenosine, the concentration range was 50 μM–2000 μM from a 200-mM stock in DMSO, and for VER155008, a stock solution of 0.25 mM in DMSO was prepared with a concentration range of 0.0625–2.5 μM. The buffer mix was made compatible with the Biacore running buffer, and the experiments were performed at a flow rate of 30 μL/min, a sample injection time of 60 s and a dissociation time of 200 s. The CM5 surface was not regenerated between sample injections. Binding constants (KD) were calculated from the DMSO-corrected and background-normalized binding curves generated from the sensorgrams under equilibrium conditions using the 1:1 binding model in Biacore software version 2 (GE Life Sciences, Amersham, UK).

[4] = Aggregation check in LO-NMR experiments; type: physicochemical; details: tested concentration 200 µM
Procedure: as §1

S275W HSC70-NBD [5] = target: T3, S275W HSC70-NBD (Homo sapiens, UniProt P11142, S275W); assay: SPR binding to S275W mutant HSC70-NBD
T3 construct: made in house
Procedure: as §2, §3

S275W HSC70-NBD [6] = target: T3, S275W HSC70-NBD; set-up: method as in PMID 27708405; details: S275W mutation; cited from earlier work
[7] = n = 2 determinations unless marked single, read-out: HSC70-NBD S275W SPR KD
[8] = mean (±SD), n = 3 unless marked n = 2, read-out: HSC70-NBD SPR KD

T3 sequence (P11142 2-386 S275W limits assumed): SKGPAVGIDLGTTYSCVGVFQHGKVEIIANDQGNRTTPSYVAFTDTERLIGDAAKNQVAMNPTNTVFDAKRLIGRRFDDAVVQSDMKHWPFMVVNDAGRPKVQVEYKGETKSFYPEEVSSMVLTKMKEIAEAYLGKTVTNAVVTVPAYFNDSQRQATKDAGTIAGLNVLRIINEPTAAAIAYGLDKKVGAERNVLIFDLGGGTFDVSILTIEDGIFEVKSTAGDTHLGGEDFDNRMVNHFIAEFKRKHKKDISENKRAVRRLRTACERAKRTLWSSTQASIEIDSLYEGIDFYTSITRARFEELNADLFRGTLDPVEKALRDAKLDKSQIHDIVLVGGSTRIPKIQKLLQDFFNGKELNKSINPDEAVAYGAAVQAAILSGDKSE
T2 sequence (P11142 2-386 limits assumed): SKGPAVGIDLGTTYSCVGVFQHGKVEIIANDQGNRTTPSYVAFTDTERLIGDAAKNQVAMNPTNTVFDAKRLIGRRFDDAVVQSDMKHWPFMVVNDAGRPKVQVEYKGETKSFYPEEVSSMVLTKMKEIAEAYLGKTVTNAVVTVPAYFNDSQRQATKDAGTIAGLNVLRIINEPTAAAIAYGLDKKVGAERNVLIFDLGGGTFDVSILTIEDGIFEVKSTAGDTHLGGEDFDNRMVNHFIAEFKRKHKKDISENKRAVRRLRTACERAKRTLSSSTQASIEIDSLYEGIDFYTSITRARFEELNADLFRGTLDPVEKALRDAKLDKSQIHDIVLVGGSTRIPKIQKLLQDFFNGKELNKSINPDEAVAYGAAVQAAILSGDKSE

Compound: Nc1ncnc2c1ncn2[C@@H]1O[C@H](COP(=O)(O)OP(=O)(O)O)[C@@H](O)[C@H]1O [ADP]
- Kd (HSP70): 0.5 µM

Compound: NC(=O)N1CCN(c2nc(-c3ccccc3)cs2)CC1 [Compound 1, 4-(4-Phenylthiazol-2-yl)piperazine-1-carboxamide]
- melting point: 131 °C (dec.)
- waterLOGSY NOE sign inversion on addition of HSP72-NBD (HSP72-NBD [1]): binding to the protein
- solubility kinetic at 20 h [2]: 291 µM (≈ 83.9 µg/mL)
- Reduction in 1H NMR peak intensity relative to 1 alone, Peak a (HSP72-NBD [3]; 1 (200 μM) + HSP72-NBD (10 μM), thiazole C5 proton): 58%
- Reduction in 1H NMR peak intensity relative to 1 alone, Peak b (HSP72-NBD [3]; 1 + HSP72-NBD): 7%
- Reduction in 1H NMR peak intensity relative to 1 alone, Peak c (HSP72-NBD [3]; 1 + HSP72-NBD): 14%
- Reduction in 1H NMR peak intensity relative to 1 alone, Peak d (HSP72-NBD [3]; 1 + HSP72-NBD): 13%
- Reduction in 1H NMR peak intensity relative to 1 alone, Peak a (HSP72-NBD [3]; 1 + HSP72-NBD + ATP): 8%
- Reduction in 1H NMR peak intensity relative to 1 alone, Peak b (HSP72-NBD [3]; 1 + HSP72-NBD + ATP): 12%
- Reduction in 1H NMR peak intensity relative to 1 alone, Peak c (HSP72-NBD [3]; 1 + HSP72-NBD + ATP): 2%
- Reduction in 1H NMR peak intensity relative to 1 alone, Peak d (HSP72-NBD [3]; 1 + HSP72-NBD + ATP): 2%
- SPR binding behaviour (Langmuir isotherm) (HSC70-NBD; concentration-response SPR, HSC70-NBD): non-saturating behavior
- Aggregation in LO-NMR experiments [4]: did not show aggregation

Compound: N#Cc1ccc(COC[C@H]2O[C@@H](n3c(NCc4ccc(Cl)c(Cl)c4)nc4c(N)ncnc43)[C@H](O)[C@@H]2O)cc1 [VER-155008]
- Kd (HSP70): 0.5 µM

Compound: Nc1ncnc2c1ncn2[C@@H]1O[C@H](CO)[C@@H](O)[C@H]1O [adenosine]
- Binding of adenosine to S275W mutant by SPR (S275W HSC70-NBD [6]): abolished

Further lines, results first:

- Kd (S275W HSC70-NBD [5]; SPR, single determination, read-out: KD S275W HSC70): 352 µM
- Change in NMR signal intensity for 3, Peak a (HSP72-NBD [3]; 3 + HSP72-NBD): 41%
- Change in NMR signal intensity for 3, Peak b (HSP72-NBD [3]; 3 + HSP72-NBD): 36%
- Change in NMR signal intensity for 3, Peak c (HSP72-NBD [3]; 3 + HSP72-NBD): 31%
- Change in NMR signal intensity for 3, Peak a (HSP72-NBD [3]; 3 + HSP72-NBD + ATP): 5%
- Change in NMR signal intensity for 3, Peak b (HSP72-NBD [3]; 3 + HSP72-NBD + ATP): 22%
- Change in NMR signal intensity for 3, Peak c (HSP72-NBD [3]; 3 + HSP72-NBD + ATP): 7%
- Kd (HSC70-NBD; SPR, WT HSC70-NBD, single determination, read-out: KD HSC70-NBD): 388 µM
- Ligand Efficiency (HSC70-NBD; calculated for binding to WT HSC70-NBD): 0.16 kcal/mol per heavy atom
Compound: NC(=O)N1CCN(c2nc(-c3ccc(C#CCN4CCOCC4)cc3)cs2)CC1 [Compound 3, 4-[4-[4-(3-Morpholinoprop-1-ynyl)phenyl]thiazol-2-yl]piperazine-1-carboxamide]

- Kd (S275W HSC70-NBD [5]; [7]): 385 µM
- Kd (HSC70-NBD; [8]): 406 µM
- Ligand Efficiency (HSC70-NBD; vHTS hits, HSC70-NBD): 0.18 kcal/mol per heavy atom
Compound: CC(C)c1csc(CCNC(=O)c2cccc(-c3cncc(O)n3)c2)n1 [Compound 4]

- Kd (S275W HSC70-NBD [5]; [7]): 176 µM
- Kd (HSC70-NBD; [8]): 295 µM
- Ligand Efficiency (HSC70-NBD; vHTS hits, HSC70-NBD): 0.19 kcal/mol per heavy atom
Compound: CC(C)(O)C#Cc1cccc(C(=O)NCc2ccc(-n3cncn3)cc2)c1 [Compound 5]

- Kd (S275W HSC70-NBD [5]; [7]): 12 µM
- Kd (HSC70-NBD; [8]): 13 µM
- Ligand Efficiency (HSC70-NBD; vHTS hits, HSC70-NBD): 0.24 kcal/mol per heavy atom
Compound: c1ccc(-c2ccc(Cn3nnnc3N3CCCC(c4ncc[nH]4)C3)cc2)cc1 (stereo not shown) [Compound 6]

- Kd (S275W HSC70-NBD [5]; [7]): 159 µM
- Kd (HSC70-NBD; [8]): 134 µM
- Ligand Efficiency (HSC70-NBD; vHTS hits, HSC70-NBD): 0.21 kcal/mol per heavy atom
Compound: CNc1nc(C)cc(-c2cccc(C(=O)NCCc3ccc(C)o3)c2)n1 [Compound 7]

- Kd (S275W HSC70-NBD [5]; [7]): 86 µM
- Kd (HSC70-NBD; [8]): 99 µM
- Ligand Efficiency (HSC70-NBD; vHTS hits, HSC70-NBD): 0.2 kcal/mol per heavy atom
Compound: COc1cccc(-c2cc(CNC(=O)c3c(C)oc4c3C(=O)CCC4)on2)c1 [Compound 8]
